Laboratory results from US20120045543A1, “SHELF-LIFE EXTENSION OF SOUR DOUGH BAKED GOODS” (ERNST BÖCKER GMBH & CO. KG, priority 2009, published 2012).

Assays:
A. niger = assay: challenge experiment, mycelial growth on bread; assay type: cell-based
[1] = loss of propionic acid during baking; assay type: physicochemical; conditions: during baking and up to 24 h thereafter
Experimental: Using the method known to those skilled in the art, the loss of propionic acid was determined in order to find out how much propionic acid is present in the various intermediates (dough versus baked product). […] This may be explained by the fact that at the end of the baking time the bread crumb has a temperature of at most 98° C.-106° C. Propionic acid has a boiling point of 141° C. and is therefore retained in the bread crumb during the baking to completion and also after cooling, and therefore can effect the desired protection against mold.

P. roqueforti = assay: challenge experiment on inoculated bread slices; assay type: cell-based; conditions: based on initial flour weight
Excerpt: The inoculated bread slices, already after 2-4 days, had mycelia of P. roqueforti. In order to inhibit this mold fungus growth, a concentration of greater than 0.4% w/w propionic acid (based on the initial flour weight) was required.

bacteria = conditions: cited from earlier work
mold = assay: storage study of bread, mold-free time; conditions: bread with 0.4% propionic acid added
mold fungi = conditions: pH 5.5; depending on the fungal species; cited from earlier work
[2] = cited from earlier work

CCC(=O)O [propionic acid]
chemical addition needed to achieve comparable preservation results (A. niger; compared with co-fermentation giving 0.2% propionic and 0.2% acetic acid): at least 0.4%
concentration suppressing growth of A. niger up to the end of the study (A. niger; propionic acid alone, breads, challenge experiment): 0.3%
concentration of propionic acid during baking [1]: remained roughly constant
concentration required to inhibit mold fungus growth (P. roqueforti): greater than 0.4 % w/w
concentration necessary for inhibition of bacteria (bacteria): 1.6-6%
mold-free time longer compared with propionic acid-free bread (mold): 14 days
concentration inhibiting growth of mold fungi (mold fungi): 0.0125-1.25%
toxicity on oral intake [2]: not acutely toxic
